How the values were obtained:
Type in all cases: biochemical
Wild-type cruzipain = Wild-type cruzipain (Trypanosoma cruzi, UniProt P25779); test: Trypanosoma cruzi cruzipain peptidase activity assay (Ki); details: read-out: Ki, inhibitors of cruzain and cruzipains
Outline: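 Native cruzipain from T. cruzi Dm28 epimastigotes, 2.5 nM, in 100 mM sodium phosphate pH 6.75 with 1 mM EDTA and 10 mM L-cysteine, 25 °C, DMSO <1%. Rates taken from continuous fluorogenic substrate read; Ki by regression assuming reversible pure-competitive inhibition.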

Bovine cathepsin S = molecular target: T1, Bovine cathepsin S (Bos taurus, UniProt P25326); test: Cathepsin S peptidase activity assay, bovine enzyme (Ki); details: species of cathepsin S not given; read-out: Ki, inhibitors of cathepsin S
T1 construct: purchased CN Biosciences
T1 sequence (P25326 115-331): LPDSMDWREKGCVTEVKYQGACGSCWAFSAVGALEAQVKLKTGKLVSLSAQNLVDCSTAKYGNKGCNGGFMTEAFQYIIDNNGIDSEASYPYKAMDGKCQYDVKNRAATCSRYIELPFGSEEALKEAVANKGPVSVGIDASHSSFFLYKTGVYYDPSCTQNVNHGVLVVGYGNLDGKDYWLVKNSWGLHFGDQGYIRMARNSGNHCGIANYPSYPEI
Method: Unless otherwise stated, all general chemicals and biochemicals were purchased from either the Sigma Chemical Company, Poole, Dorset, U.K or from Fisher Scientific UK, Loughborough, Leicestershire, U.K. Absorbance assays were carried out in flat-bottomed 96-well plates (Spectra; Greiner Bio-One Ltd., Stonehouse, Gloucestershire, U.K.) using a SpectraMax PLUS384 plate reader (Molecular Devices, Crawley, U.K.). Fluorescence high throughput assays were carried out in either 384-well microtitre plates (Corning Costar 3705 plates, Fisher Scientific) or 96-well ‘U’ bottomed Microfluor W1 microtitre plates (Thermo Labsystems, Ashford, Middlesex, U.K.). Fluorescence assays were monitored using a SpectraMax Gemini fluorescence plate reader (Molecular Devices). For substrates employing either a 7-amino-4-methylcoumarin (AMC) or a 7-amino-4-trifluoromethylcoumarin (AFC) fluorophore, assays were monitored at an excitation wavelength of 365 nm and an emission wavelength of 450 nm and the fluorescence plate reader calibrated with AMC. For substrates employing a 3-amino-benzoyl (Abz) fluorophore, assays were monitored at an excitation wavelength of 310 nm and an emission wavelength of 445 nm; the fluorescence plate reader calibrated with 3-amino-benzamide (Fluka). Unless otherwise indicated, all the peptidase substrates were purchased from Bachem UK, St Helens, Merseyside, UK. Substrates utilizing fluorescence resonance energy transfer methodology (i.e. FRET-based substrates) were synthesized at Incenta Limited using published methods (Atherton & Sheppard, Solid Phase Peptide Synthesis, IRL Press, Oxford, U.K, 1989) and employed Abz (2-aminobenzoyl) as the fluorescence donor and 3-nitro-tyrosine [Tyr(NO2)] as the fluorescence quencher (Meldal, M. and Breddam, K., Anal. Biochem, 195, 141-147, 1991). Hydroxyethylpiperazine ethanesulfonate (HEPES), tris-hydroxylmethyl aminomethane (tris) base, bis-tris-propane and all the biological detergents (e.g. CHAPS, zwittergents, etc.) were purchased from CN Biosciences UK, Beeston, Nottinghamshire, U.K. Glycerol was purchased from Amersham Pharmacia Biotech, Little Chalfont, Buckinghamshire, U.K. Stock solutions of substrate or inhibitor were made up to 10 mM in 100% dimethylsulfoxide (DMSO) (Rathburns, Glasgow, U.K.) and diluted as appropriately required. In all cases the DMSO concentration in the assays was maintained at less than 1% (vol./vol.).
Assay protocols were based on literature precedent (Table 4; Barrett, A. J., Rawlings, N. D. and Woessner, J. F., 1998, Handbook of Proteolytic Enzymes, Academic Press, London and references therein) and modified as required to suit local assay protocols. Enzyme was added as required to initiate the reaction and the activity, as judged by the change in fluorescence upon conversion of substrate to product, was monitored over time. All assays were carried out at 25±1° C.
Bovine cathepsin S, human cathepsin L, human cathepsin H and human cathepsin B were obtained from CN Biosciences. Recombinant human cathepsin S, human cathepsin K and human cathepsin X were obtained from Dr. Boris Turk (Josef Stefan Institute, Ljubljana, Slovenia). Unless otherwise stated, all peptidase activity assays were carried out in 10 mM bis-tris-propane (BTP), pH 6.5 containing 1 mM EDTA, 5 mM 2-mercaptoethanol and 1 mM CaCl2. Human cathepsin H activity assays were carried out in 10 mM BTP pH 6.5, 142 mM NaCl2, 1 mM CaCl2, 1 mM EDTA, 1 mM DTT, 0.035 mM Zwittergent 3-16. Human cathepsin K assays were carried out in 100 mM sodium acetate; pH 5.5 containing 20 mM L-cysteine and 1 mM EDTA (Bossard, M. J., et. al., J. Biol. Chem., 21, 12517-12524, 1996). Human cathepsin X assays were carried out in 100 mM sodium acetate; pH 5.5 containing 20 mM L-cysteine; 0.05% (w/v) Brij 35 and 1 mM EDTA (Santamaria, I., et. al., J. Biol. Chem., 273, 16816-16823, 1998; Klemencic, J, et al., Eur. J. Biochem., 267, 5404-5412, 2000).

human cathepsin L = molecular target: T2, human cathepsin L (Homo sapiens, UniProt P07711); test: Cathepsin L peptidase activity assay (Ki); details: read-out: Ki, inhibitors of cathepsin L
T2 construct: purchased CN Biosciences
T2 sequence (P07711 114-333): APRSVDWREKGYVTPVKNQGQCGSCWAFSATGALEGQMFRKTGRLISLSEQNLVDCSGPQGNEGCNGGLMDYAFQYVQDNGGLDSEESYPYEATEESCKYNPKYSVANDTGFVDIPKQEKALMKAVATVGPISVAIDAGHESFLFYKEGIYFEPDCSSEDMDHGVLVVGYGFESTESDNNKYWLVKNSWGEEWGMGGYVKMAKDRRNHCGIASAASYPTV
Outline: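 Human cathepsin L at 1 nM with Ac-Phe-Arg-AMC at its KM^app (~20 μM) in 10 mM bis-tris-propane pH 6.5, 1 mM EDTA, 5 mM 2-mercaptoethanol, 1 mM CaCl2, DMSO <1%, 25±1° C. Reaction enzyme-initiated; AMC fluorescence (ex 365/em 450 nm) monitored over time.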

CPB2.8ΔCTE = molecular target: T3, CPB2.8ΔCTE (Leishmania mexicana, UniProt P36400); test: Leishmania mexicana cysteine protease B (CPB) peptidase activity assay (Ki); details: Ki, inhibitors of Leismania mexicana CPB protease
T3 construct: Wild-type recombinant CPB without the C-terminal extention (i.e. CPB2.8ΔCTE); Dr. Jeremy Mottram (Wellcome Centre for Molecular Parasitology, University of Glasgow)
T3 sequence (P36400 126-343, stated change not applied): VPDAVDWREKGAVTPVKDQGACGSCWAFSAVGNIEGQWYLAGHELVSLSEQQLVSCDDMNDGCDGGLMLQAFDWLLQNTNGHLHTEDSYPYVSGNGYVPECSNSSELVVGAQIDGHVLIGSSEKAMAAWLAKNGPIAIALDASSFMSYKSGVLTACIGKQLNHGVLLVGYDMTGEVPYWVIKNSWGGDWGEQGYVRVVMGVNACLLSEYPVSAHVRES
Outline: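 Recombinant CPB2.8ΔCTE (0.25 nM) was assayed in 100 mM sodium acetate pH 5.5 with 1 mM EDTA, 200 mM NaCl and 10 mM DTT at 25 °C, DMSO <1%, enzyme added to start. Rates were taken from continuous fluorescence slopes; apparent Ki was fitted assuming reversible, pure-competitive inhibition.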

Measured: Ki

Sequence of Wild-type cruzipain (P25779 whole entry): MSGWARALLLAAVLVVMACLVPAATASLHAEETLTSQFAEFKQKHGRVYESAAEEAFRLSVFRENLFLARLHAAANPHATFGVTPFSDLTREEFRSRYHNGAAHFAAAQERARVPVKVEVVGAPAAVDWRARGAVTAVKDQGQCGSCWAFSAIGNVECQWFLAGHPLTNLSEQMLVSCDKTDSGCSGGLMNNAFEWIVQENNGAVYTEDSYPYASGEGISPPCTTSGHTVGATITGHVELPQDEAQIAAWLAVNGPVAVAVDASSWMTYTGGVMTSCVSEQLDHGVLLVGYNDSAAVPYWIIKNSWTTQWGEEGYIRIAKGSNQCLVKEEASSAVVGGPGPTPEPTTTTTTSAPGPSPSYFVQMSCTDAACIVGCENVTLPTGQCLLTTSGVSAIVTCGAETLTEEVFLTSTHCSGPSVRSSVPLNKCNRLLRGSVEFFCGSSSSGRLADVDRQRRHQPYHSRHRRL

CC(C)C[C@H](NC(=O)c1cccc(CN)c1)C(=O)N1CC[C@@H]2[C@H]1C(=O)CN2C(=O)c1ccccc1S(C)(=O)=O [Example 185, (3aR,6aS)-3-Aminomethyl-N-{(1S)-1-[4-(2-methanesulfonyl-benzoyl)-6-oxo-hexahydro-pyrrolo[3,2-b]pyrrole-1-carbonyl]-3-methyl-butyl}-benzamide]
< 5 µM: all assays above

CC(C)C[C@H](NC(=O)c1cc2ccccc2o1)C(=O)N1CC[C@@H]2[C@H]1C(=O)CN2C(=O)c1cccnc1 [Example 16, (3aR,6aS)-Benzofuran-2-carboxylic acid {(1S)-3-methyl-1-[6-oxo-4-(pyridine-3-carbonyl)-hexahydro-pyrrolo[3,2-b]pyrrole-1-carbonyl]-butyl}-amide]
< 5 µM: all assays above

Cc1c(C(=O)N[C@@H](CC(C)C)C(=O)N2CC[C@@H]3[C@H]2C(=O)CN3C(=O)c2cccnc2)oc2ccccc12 [Example 17, (3aR,6aS)-3-Methyl-benzofuran-2-carboxylic acid {(1S)-3-methyl-1-[6-oxo-4-(pyridine-3-carbonyl)-hexahydro-pyrrolo[3,2-b]pyrrole-1-carbonyl]-butyl}-amide]
< 5 µM: all assays above

CC(C)C[C@H](NC(=O)c1cccc(CN)c1)C(=O)N1CC[C@@H]2[C@H]1C(=O)CN2C(=O)c1ccccc1 [Example 92, (3aR,6aS)-3-Aminomethyl-N-[(1S)-1-(4-benzoyl-6-oxo-hexahydro-pyrrolo[3,2-b]pyrrole-1-carbonyl)-3-methyl-butyl]-benzamide]
< 5 µM: all assays above

Cc1c(C(=O)N[C@@H](CC(C)C)C(=O)N2CC[C@@H]3[C@H]2C(=O)CN3C(=O)c2ccccc2)oc2ccccc12 [Example 10, (3aR,6aS)-3-Methyl-benzofuran-2-carboxylic acid [(1S)-1-(4-benzoyl-6-oxo-hexahydro-pyrrolo[3,2-b]pyrrole-1-carbonyl)-3-methyl-butyl]-amide]
< 5 µM: Wild-type cruzipain | Bovine cathepsin S | human cathepsin L

CC(C)C[C@H](NC(=O)c1cnc2ccccc2n1)C(=O)N1CC[C@@H]2[C@H]1C(=O)CN2C(=O)c1ccccc1 [Example 12, (3aR,6aS)-Quinoxaline-2-carboxylic acid [(1S)-1-(4-benzoyl-6-oxo-hexahydro-pyrrolo[3,2-b]pyrrole-1-carbonyl)-3-methyl-butyl]-amide]
< 5 µM: Wild-type cruzipain | Bovine cathepsin S | human cathepsin L

CC(C)C[C@H](NC(=O)c1ccc2ccccc2n1)C(=O)N1CC[C@@H]2[C@H]1C(=O)CN2C(=O)c1ccccc1 [Example 8, (3aR,6aS)-Quinoline-2-carboxylic acid [(1S)-1-(4-benzoyl-6-oxo-hexahydro-pyrrolo[3,2-b]pyrrole-1-carbonyl)-3-methyl-butyl]-amide]
< 5 µM: Wild-type cruzipain | Bovine cathepsin S | human cathepsin L

CC(C)C[C@H](NC(=O)c1cc2ccccc2o1)C(=O)N1CC[C@@H]2[C@H]1C(=O)CN2C(=O)c1ccccc1 [Example 9, (3aR,6aS)-Benzofuran-2-carboxylic acid [(1S)-1-(4-benzoyl-6-oxo-hexahydropyrrolo[3,2-b]pyrrole-1-carbonyl)-3-methyl-butyl]-amide]
< 5 µM: Wild-type cruzipain | Bovine cathepsin S | human cathepsin L

Reference: patent publication US20060100431A1, “Biologically active compounds” (Amura Therapeutics Limited, priority 2002, published 2006)
